≈ marks a conversion by molar mass, not a printed value.

The MIC is the least concentration at which growth counts as inhibited. A higher MIC goes with weaker potency. One may read the IC50 as the concentration that gives 50% inhibition.

One assay relates to S. epidermidis (ATCC 17749). Put plainly: Antibacterial activity, microplate assay. It counts as cell-based. The settings on record: Staphylococcus epidermidis, ATCC17749.
In turn, `O=C(O)c1cn(C2CC2)c2cc(N3CCNCC3)c(F)cc2c1=O` [ciprofloxacin] returned an MIC of 0.195 µg/mL (≈ 0.589 µM).

For another assay, the target named is α-glucosidase. Put plainly: Inhibitory activity against α-glucosidase (PNPG, 405 nm). The settings on record: read-out: α-glucosidase inhibitory activity IC50; 37 °C, pH 6.8, PNPG substrate.
Regarding `CC(O)CCCC1Cc2c(ccc(O)c2O)C(=O)O1` (centres unmarked) [Compound 10, 5,6-dihydroxy-3-(4-hydroxypentyl)-isochroman-1-one], the half-inhibitory concentration (IC50) is 100 µM.
`COc1c(O)ccc2c1C(=O)O[C@H](CCCC(C)=O)C2` [Compound 18, peniciisocoumarin D]: the IC50 amounted to 380 µM.
Still for that read-out and setting: the value for `COC(=O)CC[C@@H]1Cc2ccc(OC)c(O)c2C(=O)O1` [Compound 21, penicimarin N] was 620 µM; that for `COc1c(C)c(O)cc2cc(C[C@H](C)O)oc(=O)c12` [Compound 23, pestalotiorin] was 540 µM.

Tested on in another assay: not listed separately
Put plainly: Antioxidant activity assay (ABTS working solution, 734 nm).
Conditions: not given
The protocol:
The antioxidant activity assay was based on the reported methods. The assay was performed on a 96-well microplate, the reaction was initiated by adding 10 µL of sample solution to 200 µL of ABTS working solution. […] The inhibition rate of each sample was calculated according to the following formula: inhibition rate = [(Ablank − Acompound)/Ablank] × 100%.
`COc1ccc2c(c1O)C(=O)O[C@H](CCC[C@@H](C)O)C2` [Compound 2, Talaromarin B] displayed an IC50 of 28400 µM.
Same read-out and setting: the value for `CC(=O)CCC[C@@H]1Cc2ccc(O)c(O)c2C(=O)O1` [Compound 6, Talaromarin F] was 140 µM; that for `O=C1O[C@H](CCCO)Cc2cccc(O)c21` [Compound 7, (R)-3-(3-hydroxypropyl)-8-hydroxy-3,4-dihydroisocoumarin] was 170 µM; that for `COc1ccc2c(c1O)C(=O)O[C@H](CCCO)C2` [Compound 8, peniciisocoumarin C] was 130 µM.
Consider `COc1c(O)ccc2c1C(=O)OC(CCCO)C2` (centres unmarked) [Compound 9, 7-hydroxy-3-(3-hydroxypropyl)-8-methoxyisochroman-1-one], for which the IC50 came to 100 µM.
Same read-out and setting: the value for `CC(O)CCCC1Cc2c(ccc(O)c2O)C(=O)O1` (centres unmarked) [Compound 10, 5,6-dihydroxy-3-(4-hydroxypentyl)-isochroman-1-one] was 110 µM; that for `CC(O)CCCC1Cc2c(O)ccc(O)c2C(=O)O1` (centres unmarked) [Compound 11, peniciisocoumarin F] was 120 µM; that for `COc1ccc(O)c2c1C(=O)O[C@H](CCCC(C)=O)C2` [Compound 17, penicimarin H] was 120 µM.
Consider `COc1c(O)ccc2c1C(=O)O[C@H](CCCC(C)=O)C2` [Compound 18, peniciisocoumarin D], for which it took 160 µM to reach half-maximal inhibition (IC50).
Still for that read-out and setting: the value for `CC(=O)OCCC[C@@H]1Cc2cccc(O)c2C(=O)O1` [Compound 19, peniciisocoumarin G] was 150 µM.
In the case of `Cc1c(O)cc2cc(CC(C)O)oc(=O)c2c1O` (centres unmarked) [Compound 22, 6,8-dihydroxy-3-(2-hydroxypropyl)-7-methyl-1H-isochromen-1-one], the IC50 turned out to be 9 µM.
On the same count and under the same terms, the value for `Cc1c(C)c2c(c(C)c1O)CCC(C)(C(=O)O)O2` (centres unmarked) [Trolox, trolox, reference compound] was 290 µM.

These data come from article PMC9229493, “Talaromarins A–F: Six New Isocoumarins from Mangrove-Derived Fungus Talaromyces flavus TGGP35” (Marine Drugs, 2022).
